Assay results: patent US10689354B2, “Aminoazole derivative” (Teijin Pharma Limited, priority 2015, dated 2020)

Assays:
human androgen receptor = target: T1, human androgen receptor (Homo sapiens, UniProt P10275); assay: Reporter assay of an androgen receptor responsive sequence (luciferase, transiently transfected HEK293 cells); assay type: cell-based; settings: 24 hours incubation, relative to activity of 100 nM DHT, read-out: AR transcriptive activity (pEC50) (converted)
T1 construct: expressed in transfected cells; host or cells: HEK293
T1 sequence (P10275 1-920): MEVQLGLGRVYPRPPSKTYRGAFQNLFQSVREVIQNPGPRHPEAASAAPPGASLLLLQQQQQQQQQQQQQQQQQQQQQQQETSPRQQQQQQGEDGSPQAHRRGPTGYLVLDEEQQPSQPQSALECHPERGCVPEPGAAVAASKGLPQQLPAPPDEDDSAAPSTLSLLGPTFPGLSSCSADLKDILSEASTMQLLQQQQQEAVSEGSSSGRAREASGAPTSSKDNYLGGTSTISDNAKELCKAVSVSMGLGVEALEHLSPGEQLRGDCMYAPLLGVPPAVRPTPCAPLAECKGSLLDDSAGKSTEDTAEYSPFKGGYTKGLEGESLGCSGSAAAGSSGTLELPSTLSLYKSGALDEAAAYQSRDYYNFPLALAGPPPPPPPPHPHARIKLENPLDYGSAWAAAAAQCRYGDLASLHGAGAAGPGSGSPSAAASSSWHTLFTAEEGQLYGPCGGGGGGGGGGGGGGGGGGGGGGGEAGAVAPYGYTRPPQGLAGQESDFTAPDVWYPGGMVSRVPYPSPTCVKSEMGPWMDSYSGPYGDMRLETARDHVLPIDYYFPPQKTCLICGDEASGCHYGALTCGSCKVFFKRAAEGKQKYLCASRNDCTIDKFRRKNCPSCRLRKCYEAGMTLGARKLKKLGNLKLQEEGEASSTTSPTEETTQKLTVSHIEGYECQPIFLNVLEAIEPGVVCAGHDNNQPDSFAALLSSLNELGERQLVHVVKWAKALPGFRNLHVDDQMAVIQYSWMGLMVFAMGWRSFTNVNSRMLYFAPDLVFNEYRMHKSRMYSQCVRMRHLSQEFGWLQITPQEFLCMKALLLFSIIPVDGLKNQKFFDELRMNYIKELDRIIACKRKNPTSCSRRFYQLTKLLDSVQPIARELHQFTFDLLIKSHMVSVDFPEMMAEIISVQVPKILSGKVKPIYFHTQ
In short: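 HEK293 cells transiently transfected for 3 h with ARE-firefly luciferase, full-length human AR and TK-Renilla plasmids, then exposed to compound for 24 h at 37 °C in 5% charcoal-treated FBS/DMEM. Dual-Glo luminescence read; pEC50 from 4-parameter fit relative to 100 nM DHT.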

[1] = target: T2, androgen receptor (AR-LBD) (Rattus norvegicus, UniProt P15207); assay: Evaluation of androgen receptor affinity (PolarScreen Androgen Receptor Competitor Assay Kit, Red; fluorescence polarization); settings: 22° C. for 5 hours, relative to binding rate of 1 μM DHT, read-out: AR affinity (pEC50) (converted)
T2 construct: 5 μL of 2×AR-LBD/Fluoromone AL Red Complex contained in the kit; purchased Invitrogen
T2 sequence (P15207 651-882 limits assumed): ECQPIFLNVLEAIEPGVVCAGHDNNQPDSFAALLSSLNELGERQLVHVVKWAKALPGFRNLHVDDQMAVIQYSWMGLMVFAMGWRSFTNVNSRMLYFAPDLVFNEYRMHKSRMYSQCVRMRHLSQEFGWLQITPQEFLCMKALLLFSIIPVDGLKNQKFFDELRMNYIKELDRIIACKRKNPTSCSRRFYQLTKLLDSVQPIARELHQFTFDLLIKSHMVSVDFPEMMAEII
In short: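 Fluorescence polarization competition assay: compound was incubated in duplicate with the kit's AR-LBD/Fluoromone AL Red complex for 5 h at 22 °C. Binding was expressed relative to 1 μM DHT, and pEC50 was derived by 4-parameter fit.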

SMILES | EC50 (human androgen receptor) | EC50 [1]
CCS(=O)(=O)NC(=O)c1nc(N(Cc2ccccc2)c2ccc(C#N)cc2)sc1C [Compound 362, 2-(N-benzyl-4-cyano-anilino)-N-ethylsulfonyl-5-methyl-thiazole-4-carboxamide] | 251 nM | 63.1 nM
Cc1sc(N(CCc2ccccc2F)c2ccc(C#N)cc2)nc1C(=O)NS(C)(=O)=O [Compound 80, 2-[4-cyano-N-[2-(2-fluorophenyl)ethyl]anilino]-5-methyl-N-methylsulfonyl-thiazole-4-carboxamide] | > 10000 nM | 316 nM
Cc1sc(N(CCc2cccs2)c2ccc(C#N)cc2)nc1C(=O)NS(C)(=O)=O [Compound 131, 2-[4-cyano-N-[2-(2-thienyl)ethyl]anilino]-5-methyl-N-methylsulfonyl-thiazole-4-carboxamide] | 1000 nM | 251 nM
Cc1sc(N(Cc2ccccc2)CC(F)(F)c2ccc(Cl)cc2)nc1C(=O)NS(C)(=O)=O [Compound 329, 2-[benzyl-[2-(4-chlorophenyl)-2,2-difluoro-ethyl]amino]-5-methyl-N-methylsulfonyl-thiazole-4-carboxamide] | 3980 nM | 126 nM
Cc1sc(N(Cc2cccc(C(F)F)c2)c2ccc(C#N)cc2)nc1C(=O)NS(C)(=O)=O [Compound 450, 2-[4-cyano-N-[[3-(difluoromethyl)phenyl]methyl]anilino]-5-methyl-N-methylsulfonyl-thiazole-4-carboxamide] | 50.1 nM | 31.6 nM
Cc1sc(N(Cc2ccc3c(c2)CCO3)c2ccc(C#N)cc2)nc1C(=O)NS(C)(=O)=O [Compound 478, 2-[4-cyano-N-(2,3-dihydrobenzofuran-5-ylmethyl)anilino]-5-methyl-N-methylsulfonyl-thiazole-4-carboxamide] | 25.1 nM | 63.1 nM

Other lines, results leading:

EC50 (human androgen receptor) | EC50 [1] | SMILES
> 10000 nM | 63.1 nM | Cc1sc(N(CCc2ccc(Cl)cc2)CC2CCCCC2)nc1C(=O)NS(=O)(=O)Cc1cccnc1 [Compound 699, 2-[2-(4-chlorophenyl)ethyl-(cyclohexylmethyl)amino]-5-methyl-N-(3-pyridylmethylsulfonyl)thiazole-4-carboxamide]
2510 nM | 158 nM | Cc1oc(N(Cc2nc3ccccc3s2)c2ccc(C#N)cc2)nc1C(=O)NS(C)(=O)=O [Compound 630, 2-[N-(1,3-benzothiazol-2-ylmethyl)-4-cyano-anilino]-5-methyl-N-methylsulfonyl-oxazole-4-carboxamide]
79.4 nM | 100 nM | CS(=O)(=O)NC(=O)c1nc(N(Cc2ccccc2F)c2ccc(C#N)cc2)sc1Cl [Example 257, 5-chloro-2-[4-cyano-N-[(2-fluorophenyl)methyl]anilino]-N-methylsulfonyl-thiazole-4-carboxamide]
> 10000 nM | 20 nM | COCCCS(=O)(=O)NC(=O)c1nc(N(Cc2ccc(Cl)cc2)c2ccc(C#N)cc2)sc1C1CC1 [Compound 665, 2-[N-[(4-chlorophenyl)methyl]-4-cyano-anilino]-5-cyclopropyl-N-(3-methoxypropylsulfonyl)thiazole-4-carboxamide]
251 nM | 31.6 nM | CCS(=O)(=O)NC(=O)c1nc(N(CCc2ccc(C#N)cc2)Cc2ccc(Cl)cc2)sc1C [Compound 713, 2-[(4-chlorophenyl)methyl-[2-(4-cyanophenyl)ethyl]amino]-N-ethylsulfonyl-5-methyl-thiazole-4-carboxamide]
7940 nM | 200 nM | Cc1sc(N(Cc2ccc(OCCCO)cc2)c2ccc(C#N)cc2)nc1C(=O)NS(C)(=O)=O [Compound 579, 2-[4-cyano-N-[[4-(3-hydroxypropoxy)phenyl]methyl]anilino]-5-methyl-N-methylsulfonyl-thiazole-4-carboxamide]
200 nM | 31.6 nM | CCS(=O)(=O)NC(=O)c1nc(N(CCc2ccc(Cl)cc2)Cc2ccc(Cl)cc2)sc1C [Compound 693, 2-[2-(4-chlorophenyl)ethyl-[(4-chlorophenyl)methyl]amino]-N-ethylsulfonyl-5-methyl-thiazole-4-carboxamide]
